Source: EP4678638A1, “NEW E3 UBIQUITIN LIGASE LIGAND, PROTEIN DEGRADATION AGENT AND USE THEREOF” (priority 2023, dated 2024)
Read-outs that look alike come from different tables or passages of the source.

Tests used:
CAL-62 = assay: CCK-8 proliferation, CAL-62; format: cell-based; conditions: Homo sapiens, 72 hours, read-out: Inhibitory activity (IC50) on tumor cell proliferation, CAL-62
Method: (§1) The tumor cells used herein were cultured in a cell culture medium listed in table A1 at 37°C in an incubator with 5% CO2. Prior to experimentation, all cell lines used were correctly identified by STR profiling, and tested negative for mycoplasma contamination using a mycoplasma detection kit through routine screenings. Table A1. Tumor cells and cell culture medium used in the present disclosure
(§2) IC50 values of the compounds of the present disclosure (including the compounds in Table 1, and compounds of examples) were measured using the Meilun Cell Counting Kit-8 kit from Dalian Meilun Biotech Co., Ltd. Assay details are as follows: tumor cells were seeded in a 96-well plate at a density listed in Table A2. After 24h, 100 µL of the inoculated cells were treated with 0.5µL of the compounds of the present disclosure (including the compounds in Tables 1 and 2, and compounds of examples) at 10 different successively decreasing concentrations (starting at the highest concentration of 10µM; 5-fold serial dilutions). After the cells were treated with the compounds of the present disclosure for a period of time, the cell viability detection reagent was added to the culture medium for cell viability assessment according to the instructions provided with the CCK-8 kit. […] The growth inhibition of the compounds of the present disclosure on cells was plotted by Prism Graphpad software, and the IC50 values of the compounds of the present disclosure were calculated therefrom. […] Seeding protocol and treatment time for tumor cells

Vcap = assay: CCK-8 proliferation, Vcap; format: cell-based; conditions: Homo sapiens, 96 hours, read-out: Inhibitory activity (IC50) on tumor cell proliferation, Vcap
Method: as §1
IC50 values of the compounds of the present disclosure (including the compounds in Table 1, and compounds of examples) were measured using the Meilun Cell Counting Kit-8 kit from Dalian Meilun Biotech Co., Ltd. Assay details are as follows: tumor cells were seeded in a 96-well plate at a density listed in Table A2. After 24h, 100 µL of the inoculated cells were treated with 0.5µL of the compounds of the present disclosure (including the compounds in Tables 1 and 2, and compounds of examples) at 10 different successively decreasing concentrations (starting at the highest concentration of 10µM; 5-fold serial dilutions). […] The growth inhibition of the compounds of the present disclosure on cells was plotted by Prism Graphpad software, and the IC50 values of the compounds of the present disclosure were calculated therefrom. […]

SW620 = assay: CCK-8 proliferation, SW620; format: cell-based; conditions: Homo sapiens, SW-620; CCK-8; 96 hours; read-out: Inhibitory activity (IC50) on tumor cell proliferation, SW620
Method in brief: (§3)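 Tumor cells were cultured at 37°C with 5% CO2, seeded, and after 24h treated with compounds at 10 concentrations starting at 10µM (5-fold serial dilutions).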

Jurkat = assay: CCK-8 proliferation, Jurkat; format: cell-based, Human; conditions: Homo sapiens, Jurkat; CCK-8; 96 hours; read-out: Inhibitory activity (IC50) on tumor cell proliferation, Jurkat
Method in brief: as §3

CCRF-CEM = assay: CCK-8 proliferation, CCRF-CEM; format: cell-based, Human; conditions: Homo sapiens, CCRF-CEM; CCK-8; 96 hours; read-out: Inhibitory activity (IC50) on tumor cell proliferation, CCRF-CEM
Method in brief: as §3

MGC-803 = assay: CCK-8 proliferation, MGC-803 (heads: MGC80-3, MGC803); format: cell-based, Human; conditions: Homo sapiens, MGC-803, CCK-8, 72 hours
Method in brief: as §3

TRK = assay: Western blot degradation of TRK / NTRK (SK-N-AS Cell); format: cell-based; conditions: Table D14
Method: (§4) Conventional Western blot assay was performed to evaluate the effects of the compounds of the present disclosure on the expression of target proteins in cells.
(§5) (1) Cell Seeding and Protein Harvesting: The selected cells were processed according to the cell seeding procedure and protein harvesting procedure in Table III-2. Table III-2 Cell Seeding and Protein Harvesting Procedures
(§6) (2) To the collected supernatant, 5X SDS sample loading buffer was added, followed by denaturation at 95°C for 5 minutes. The denatured samples were then separated by SDS-PAGE electrophoresis on a polyacrylamide gel. Proteins were transferred to a nitrocellulose membrane (0.45 µm NC membrane), blocked with blocking buffer at room temperature for 1 hour, and subjected to antibody incubation and development procedures according to the antibody manufacturer's instructions (Cell Signaling Technology).
(§7) Half-Maximal Degradation Concentration value (the drug concentration required for degrading proteins by 50%, abbreviated as DC50) reads method: comparing the grayscale values of Western blot bands from drug-treated samples with those from blank DMSO-treated controls, and identifying the drug concentration range at which the grayscale value is half that of the DMSO-treated control bands.
(§8) DC50 values can be calculated using ImageJ software to measure grayscale values of Western blot bands from drug-treated samples. The concentration-response curve is fitted to estimate the drug concentration corresponding to half the grayscale value.
(§9) Target protein remaining (%) refers to the percentage of target protein remaining in hPBMC cells after treatment with protein degrader compounds.
(§10) Calculation method for target protein remaining (%): Use ImageJ software to measure grayscale values of Western blot bands from drug (protein degrader)-treated samples. The grayscale value of drug-treated bands is divided by that of internal control protein bands, and the resulting quotient is normalized to obtain the relative percentage of remaining target protein after protein degrader treatment. […]

[1] = target: T1, human Cereblon WT GST-tagged protein (Homo sapiens, UniProt Q96SW2); assay: CRBN binding, HTRF (CEREBLON BINDING kit); conditions: Table II-2, CRBN binding screening, HTRF; for inhibition at 0.5 µM: read-out: Inhibition rate (%) at 0.5µM; for inhibition at 2 µM: read-out: Inhibition rate (%) at 2 µM
T1 construct: purchased CISBIO 64BDCRBNPEH
Method in brief: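 Competitive HTRF: GST-tagged human WT Cereblon mixed with compound, Thalidomide-Re tracer and GST Eu antibody, incubated 3 h at room temperature. Signals read at 620 and 665 nm.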

CFPAC-1 = assay: CCK-8 proliferation, CFPAC-1; format: cell-based; conditions: Homo sapiens, 72 or 96 hours, read-out: Inhibitory activity (IC50) on tumor cell proliferation, CFPAC-1
Method: as §1, §2

LNcap = assay: CCK-8 proliferation, LNcap; format: cell-based; conditions: Homo sapiens, LNCaP; CCK-8; 96 hours; read-out: Inhibitory activity (IC50) on tumor cell proliferation, Lncap
Method in brief: as §3

BCR-ABL = target: T2, BCR-ABL (Homo sapiens, UniProt P00519+P11274+Q96SW2, E27K); assay: Western blot degradation of BCR-ABL (K562 Cell); format: cell-based; conditions: Table D15
T2 construct: evaluate the effects of the compounds of the present disclosure on the expression of target proteins in cells; endogenous in cells; host or cells: K562
Method: as §4, §5, §6, §7, §8, §9, §10

THP-1 = assay: CCK-8 proliferation, THP-1; format: cell-based; conditions: Homo sapiens, 72 hours, read-out: Inhibitory activity (IC50) on tumor cell proliferation, THP-1
Method in brief: as §3

H520 = assay: CCK-8 proliferation, H520; format: cell-based; conditions: Homo sapiens, NCI-H520, 96 hours, read-out: Inhibitory activity (IC50) on tumor cell proliferation, H520
Method: as §1, §2

AR = target: T3, AR (Homo sapiens, UniProt P10275+Q96SW2, T878A); assay: Western blot degradation of AR (LnCap Cell); format: cell-based; conditions: Table D11
T3 construct: evaluate the effects of the compounds of the present disclosure on the expression of target proteins in cells; endogenous in cells; host or cells: LnCap
Method: as §4, §5, §6, §7
DC50 values can be calculated using ImageJ software to measure grayscale values of Western blot bands from drug-treated samples. […]

BXPC-3 = assay: CCK-8 proliferation, BXPC-3; format: cell-based; conditions: Homo sapiens, 96 hours, read-out: Inhibitory activity (IC50) on tumor cell proliferation, BXPC-3
Method in brief: as §3

DU-145 = assay: CCK-8 proliferation, DU-145; format: cell-based; conditions: Homo sapiens, 96 hours, read-out: Inhibitory activity (IC50) on tumor cell proliferation, DU-145
Method: as §1, §2

[2] = read-out: Inhibitory activity (IC50) on tumor cell proliferation, MGC803

T2 sequence (P11274+P00519 fused, stated change not applied): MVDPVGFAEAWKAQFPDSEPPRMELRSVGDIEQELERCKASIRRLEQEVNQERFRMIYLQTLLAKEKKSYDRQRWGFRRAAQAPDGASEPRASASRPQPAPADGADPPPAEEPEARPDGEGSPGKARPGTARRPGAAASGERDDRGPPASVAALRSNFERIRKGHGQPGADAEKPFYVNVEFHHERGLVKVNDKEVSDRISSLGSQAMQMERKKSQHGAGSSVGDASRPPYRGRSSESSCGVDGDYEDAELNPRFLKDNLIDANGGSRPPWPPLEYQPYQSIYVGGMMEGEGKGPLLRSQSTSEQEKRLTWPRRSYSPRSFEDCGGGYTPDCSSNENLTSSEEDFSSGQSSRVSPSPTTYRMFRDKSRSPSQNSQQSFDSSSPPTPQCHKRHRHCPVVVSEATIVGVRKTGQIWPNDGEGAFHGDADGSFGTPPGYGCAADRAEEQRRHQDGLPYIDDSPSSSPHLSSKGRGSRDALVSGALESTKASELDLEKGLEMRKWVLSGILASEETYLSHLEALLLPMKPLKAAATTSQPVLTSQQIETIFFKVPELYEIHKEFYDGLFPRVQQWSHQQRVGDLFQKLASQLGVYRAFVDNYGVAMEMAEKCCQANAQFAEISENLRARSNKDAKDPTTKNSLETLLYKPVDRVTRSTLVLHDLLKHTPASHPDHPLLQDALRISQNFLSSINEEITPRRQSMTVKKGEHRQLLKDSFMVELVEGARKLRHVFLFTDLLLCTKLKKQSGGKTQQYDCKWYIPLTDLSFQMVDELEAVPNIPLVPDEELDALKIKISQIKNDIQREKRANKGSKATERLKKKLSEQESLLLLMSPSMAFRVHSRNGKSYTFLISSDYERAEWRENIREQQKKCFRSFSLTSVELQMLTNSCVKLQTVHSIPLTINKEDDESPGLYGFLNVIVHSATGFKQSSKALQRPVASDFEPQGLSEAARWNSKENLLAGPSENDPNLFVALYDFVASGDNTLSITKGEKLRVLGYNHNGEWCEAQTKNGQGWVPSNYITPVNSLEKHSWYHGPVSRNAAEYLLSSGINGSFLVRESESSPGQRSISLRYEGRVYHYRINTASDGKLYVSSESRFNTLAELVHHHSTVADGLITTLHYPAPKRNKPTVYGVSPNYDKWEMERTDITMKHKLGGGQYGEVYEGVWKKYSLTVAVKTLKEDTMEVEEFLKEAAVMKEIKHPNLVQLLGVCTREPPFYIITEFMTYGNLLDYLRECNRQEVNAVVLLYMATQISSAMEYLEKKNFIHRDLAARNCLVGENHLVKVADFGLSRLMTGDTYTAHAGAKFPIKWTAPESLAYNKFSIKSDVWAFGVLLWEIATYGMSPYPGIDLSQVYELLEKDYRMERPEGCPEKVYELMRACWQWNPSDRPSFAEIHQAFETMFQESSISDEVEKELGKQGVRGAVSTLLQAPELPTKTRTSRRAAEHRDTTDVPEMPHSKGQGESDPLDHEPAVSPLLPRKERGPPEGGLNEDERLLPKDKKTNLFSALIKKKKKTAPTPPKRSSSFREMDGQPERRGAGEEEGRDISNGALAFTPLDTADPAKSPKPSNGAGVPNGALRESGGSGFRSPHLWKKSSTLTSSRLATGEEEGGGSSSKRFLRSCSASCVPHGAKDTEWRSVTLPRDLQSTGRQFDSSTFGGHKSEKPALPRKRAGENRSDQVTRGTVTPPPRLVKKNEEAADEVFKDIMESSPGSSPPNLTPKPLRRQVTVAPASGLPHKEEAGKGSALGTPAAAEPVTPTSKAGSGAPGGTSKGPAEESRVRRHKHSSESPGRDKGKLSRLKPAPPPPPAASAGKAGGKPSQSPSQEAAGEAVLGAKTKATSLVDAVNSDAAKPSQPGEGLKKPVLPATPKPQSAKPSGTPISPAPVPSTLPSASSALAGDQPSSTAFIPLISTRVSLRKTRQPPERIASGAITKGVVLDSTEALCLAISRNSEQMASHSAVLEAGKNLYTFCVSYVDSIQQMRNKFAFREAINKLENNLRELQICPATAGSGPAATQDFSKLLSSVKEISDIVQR
T2 sequence (Q16531 whole entry, stated change not applied, further chain): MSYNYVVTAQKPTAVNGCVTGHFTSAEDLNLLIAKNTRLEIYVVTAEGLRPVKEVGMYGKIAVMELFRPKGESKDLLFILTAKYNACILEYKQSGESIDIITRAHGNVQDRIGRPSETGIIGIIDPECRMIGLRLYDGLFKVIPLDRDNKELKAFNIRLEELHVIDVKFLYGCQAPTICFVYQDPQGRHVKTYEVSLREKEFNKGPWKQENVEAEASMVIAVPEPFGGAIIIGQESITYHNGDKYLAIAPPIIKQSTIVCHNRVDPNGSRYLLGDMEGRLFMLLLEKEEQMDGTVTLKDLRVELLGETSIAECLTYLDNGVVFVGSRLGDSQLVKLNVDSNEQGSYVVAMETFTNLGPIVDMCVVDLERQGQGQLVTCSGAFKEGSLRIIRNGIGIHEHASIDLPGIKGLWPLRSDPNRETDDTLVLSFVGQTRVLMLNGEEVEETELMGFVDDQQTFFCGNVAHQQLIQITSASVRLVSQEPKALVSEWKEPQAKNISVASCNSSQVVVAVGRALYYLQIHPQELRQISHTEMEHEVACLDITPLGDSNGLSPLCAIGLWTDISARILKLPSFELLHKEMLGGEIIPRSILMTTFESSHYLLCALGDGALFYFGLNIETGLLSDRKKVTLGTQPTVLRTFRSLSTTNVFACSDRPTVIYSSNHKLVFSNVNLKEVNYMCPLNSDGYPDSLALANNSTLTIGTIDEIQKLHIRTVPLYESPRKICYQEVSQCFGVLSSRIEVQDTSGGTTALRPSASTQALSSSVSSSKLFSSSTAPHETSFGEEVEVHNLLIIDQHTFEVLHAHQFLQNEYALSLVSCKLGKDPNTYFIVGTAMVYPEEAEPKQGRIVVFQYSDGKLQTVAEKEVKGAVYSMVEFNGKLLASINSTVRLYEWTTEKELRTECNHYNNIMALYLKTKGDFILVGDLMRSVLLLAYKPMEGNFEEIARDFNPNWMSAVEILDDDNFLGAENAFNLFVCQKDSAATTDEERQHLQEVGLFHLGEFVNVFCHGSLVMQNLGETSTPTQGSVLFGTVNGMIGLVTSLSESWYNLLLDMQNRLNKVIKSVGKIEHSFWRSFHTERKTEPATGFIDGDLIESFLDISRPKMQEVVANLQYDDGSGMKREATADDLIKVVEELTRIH
T2 sequence (Q96SW2 whole entry, stated change not applied): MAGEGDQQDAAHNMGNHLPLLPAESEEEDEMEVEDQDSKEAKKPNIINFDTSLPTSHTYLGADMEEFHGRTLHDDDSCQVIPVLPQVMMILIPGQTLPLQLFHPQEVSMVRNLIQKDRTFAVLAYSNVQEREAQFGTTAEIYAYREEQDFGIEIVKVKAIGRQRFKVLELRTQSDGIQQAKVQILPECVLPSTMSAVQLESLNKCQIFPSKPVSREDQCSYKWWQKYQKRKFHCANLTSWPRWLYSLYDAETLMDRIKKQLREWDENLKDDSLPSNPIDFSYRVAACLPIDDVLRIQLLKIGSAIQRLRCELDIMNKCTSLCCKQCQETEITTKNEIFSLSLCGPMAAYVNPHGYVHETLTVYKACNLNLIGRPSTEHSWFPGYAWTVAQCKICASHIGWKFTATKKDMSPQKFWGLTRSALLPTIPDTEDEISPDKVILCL
T1 sequence (Q96SW2 whole entry): as the sequence (Q96SW2 whole entry, stated change not applied) above
T3 sequence (P10275 whole entry T878A): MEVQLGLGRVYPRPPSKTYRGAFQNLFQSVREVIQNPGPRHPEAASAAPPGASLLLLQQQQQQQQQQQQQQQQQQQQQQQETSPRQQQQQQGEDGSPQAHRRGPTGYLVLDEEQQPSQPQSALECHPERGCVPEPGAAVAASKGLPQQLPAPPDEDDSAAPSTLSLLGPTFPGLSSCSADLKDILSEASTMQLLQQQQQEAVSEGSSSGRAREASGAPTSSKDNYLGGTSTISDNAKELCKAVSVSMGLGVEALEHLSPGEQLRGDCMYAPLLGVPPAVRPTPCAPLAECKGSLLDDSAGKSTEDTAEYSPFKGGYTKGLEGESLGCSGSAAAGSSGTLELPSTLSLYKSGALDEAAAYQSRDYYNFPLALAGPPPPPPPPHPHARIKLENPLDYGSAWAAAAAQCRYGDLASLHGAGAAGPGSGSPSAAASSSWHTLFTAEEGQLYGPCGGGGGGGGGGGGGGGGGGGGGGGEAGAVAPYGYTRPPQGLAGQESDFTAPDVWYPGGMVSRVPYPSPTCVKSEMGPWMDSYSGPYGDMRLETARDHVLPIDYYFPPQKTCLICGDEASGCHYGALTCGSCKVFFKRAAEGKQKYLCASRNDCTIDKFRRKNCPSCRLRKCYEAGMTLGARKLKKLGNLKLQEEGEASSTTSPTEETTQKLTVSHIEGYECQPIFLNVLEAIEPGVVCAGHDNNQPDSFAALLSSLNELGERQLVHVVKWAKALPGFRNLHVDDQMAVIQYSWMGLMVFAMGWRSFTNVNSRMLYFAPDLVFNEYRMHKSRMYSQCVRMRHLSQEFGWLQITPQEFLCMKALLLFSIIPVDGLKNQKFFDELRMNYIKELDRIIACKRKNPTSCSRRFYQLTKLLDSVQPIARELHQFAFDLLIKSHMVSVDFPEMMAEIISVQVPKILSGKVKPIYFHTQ
T3 sequence (Q96SW2 whole entry): as the sequence (Q96SW2 whole entry, stated change not applied) above
T3 sequence (Q16531 whole entry partner): as the sequence (Q16531 whole entry, stated change not applied, further chain) above

O=C1CC[C@H](N2Cc3cc(N4CCN(CC5CCN(c6ccc([C@@H]7c8ccc(O)cc8CC[C@@H]7c7ccccc7)cc6)CC5)CC4)ccc3C2=O)C(=O)N1 [ARV-471, reference compound]
IC50 (CAL-62): > 10000 nM
IC50 (Vcap): > 10000 nM
IC50 (SW620): 1000 to 5000 nM
IC50 (Jurkat): > 10000 nM
IC50 (CCRF-CEM): > 10000 nM
IC50 (MGC-803; read-out: Inhibitory activity (IC50) on tumor cell proliferation, MGC80-3): > 10000 nM

O=C1CCC(c2ccc(CN3CCN(c4ccc([C@@H]5c6ccc(O)cc6CC[C@@H]5c5ccccc5)cc4)CC3)cc2)C(=O)N1 (stereo partly drawn) [GT-03856, 3-(4-((4-(4-((1R,2S)-6-hydroxy-2-phenyl-1,2,3,4-tetrahydronaphthalen-1-yl)phenyl)piperazin-1-yl)methyl)phenyl)piperidine-2,6-dione]
IC50 (CAL-62): 100 to 500 nM
IC50 (Vcap): 500 to 1000 nM
IC50 (Jurkat): 100 to 500 nM
IC50 (CCRF-CEM): 100 to 500 nM

CN(Cc1ccc(C2CCC(=O)NC2=O)cc1)C1CCN(c2cccc(-c3cnc4ccc(N5CCC[C@@H]5c5cccc(F)c5)nn34)n2)CC1 (stereo partly drawn) [GT-03898, 3-(4-(((1-(6-(6-((R)-2-(3-fluorophenyl)pyrrolidin-1-yl)imidazo[1,2-b]pyridazin-3-yl)pyridin-2-yl)piperidin-4-yl)(methyl)amino)methyl)phenyl)piperidine-2,6-dione]
Degradation of substrate protein TRK (substrate protein remaining %) (TRK): A (A is defined as 0% ≤ substrate protein remaining % ≤ 80%)
inhibition at 0.5 µM [1]: 60 to 80%
inhibition at 2 µM [1]: 80 to 100%

Cc1ccc(C(=O)Nc2ccc(CN3CCN(Cc4ccc(C5CCC(=O)NC5=O)c(F)c4)CC3)c(C(F)(F)F)c2)cc1C#Cc1cnc2cccnn12 (stereo not drawn) [GT-03937, N-(4-((4-(4-(2,6-dioxopiperidin-3-yl)-3-fluorobenzyl)piperazin-1-yl)methyl)-3-(trifluoromethyl)phenyl)-3-(imidazo[1,2-b]pyridazin-3-ylethynyl)-4-methylbenzamide]
IC50 (CFPAC-1): 100 to 500 nM
IC50 (SW620): 50 to 100 nM
IC50 (LNcap): 50 to 100 nM
IC50 (Jurkat): 50 to 100 nM
IC50 (CCRF-CEM): 50 to 100 nM
IC50 (MGC-803; [2]): 100 to 500 nM
Degradation of substrate protein BCR-ABL (substrate protein remaining %) (BCR-ABL): A (A is defined as 0% ≤ substrate protein remaining % ≤ 80%)

CN(Cc1ccc(C2CCC(=O)NC2=O)c(F)c1)C1CCN(c2ccc(C(=O)Nc3n[nH]c4ccc(Cc5cc(F)cc(F)c5)cc34)c(NC3CCOCC3)c2)CC1 (stereo not drawn) [GT-03965, N-(5-(3,5-difluorobenzyl)-1H-indazol-3-yl)-4-(4-((4-(2,6-dioxopiperidin-3-yl)-3-fluorobenzyl)(methyl)amino)piperidin-1-yl)-2-((tetrahydro-2H-pyran-4-yl)amino)benzamide]
Degradation of substrate protein TRK (substrate protein remaining %) (TRK): A (A is defined as 0% ≤ substrate protein remaining % ≤ 80%)

O=C1CCC(c2ccc(CN3CCC(N4CCN(c5ncc(C(=O)Nc6ccc(OC(F)(F)Cl)cc6)cc5-c5cc[nH]n5)CC4)CC3)cc2)C(=O)N1 (stereo not drawn) [GT-04058, N-(4-(chlorodifluoromethoxy)phenyl)-6-(4-(1-(4-(2,6-dioxopiperidin-3-yl)benzyl)piperidin-4-yl)piperazin-1-yl)-5-(1H-pyrazol-3-yl)nicotinamide]
Degradation of substrate protein BCR-ABL (substrate protein remaining %) (BCR-ABL): A (A is defined as 0% ≤ substrate protein remaining % ≤ 80%)

O=C1CCC(c2ccc(CN3CCC(N4CCN(c5ncc(C(=O)Nc6ccc(OC(F)(F)Cl)cc6)cc5-c5cc[nH]n5)CC4)CC3)cc2F)C(=O)N1 (stereo not drawn) [GT-04059, N-(4-(chlorodifluoromethoxy)phenyl)-6-(4-(1-(4-(2,6-dioxopiperidin-3-yl)-3-fluorobenzyl)piperidin-4-yl)piperazin-1-yl)-5-(1H-pyrazol-3-yl)nicotinamide]
IC50 (SW620): 100 to 500 nM
IC50 (MGC-803; [2]): 500 to 1000 nM
Degradation of substrate protein BCR-ABL (substrate protein remaining %) (BCR-ABL): A (A is defined as 0% ≤ substrate protein remaining % ≤ 80%)

Cn1cc(-c2cc(S(C)(=O)=O)ccc2OCc2cccc(NC3CCC(=O)NC3=O)c2)c2cc[nH]c2c1=O (stereo not drawn) [GT-04641, 3-((3-((2-(6-methyl-7-oxo-6,7-dihydro-1H-pyrrolo[2,3-c]pyridin-4-yl)-4-(methylsulfonyl)phenoxy)methyl)phenyl)amino)piperidine-2,6-dione]
IC50 (THP-1): 500 to 1000 nM
IC50 (H520): 500 to 1000 nM
Degradation of substrate protein AR (substrate protein remaining %) (AR): A (A is defined as 0% ≤ substrate protein remaining % ≤ 80%)
IC50 (BXPC-3): 500 to 1000 nM
inhibition at 0.5 µM [1]: 20 to 30%
inhibition at 2 µM [1]: 60 to 80%

Cc1ccc(-c2c(C)noc2C)cc1N(CC1CCN(Cc2ccc(N3CCC(=O)NC3=O)cn2)CC1)c1ccc(C2(C#N)CC2)cc1 [GT-06411, 1-(4-((5-(3,5-dimethylisoxazol-4-yl)-2-methylphenyl)((1-((5-(2,4-dioxotetrahydropyrimidin-1(2H)-yl)pyridin-2-yl)methyl)piperidin-4-yl)methyl)amino)phenyl)cyclopropane-1-carbonitrile]
IC50 (DU-145): 500 to 1000 nM
Degradation of substrate protein AR (substrate protein remaining %) (AR): A (A is defined as 0% ≤ substrate protein remaining % ≤ 80%)
